The target in test [1] is G2/mitotic-specific cyclin-B1 (Homo sapiens, UniProt P14635). The experiment in a line: Counterscreen assay for inhibitors of Wee1 degradation: dose response cell-based assay to identify inhibitors of cyclin B degradation. [Related pubchem assays: 1410, 1321 ]. The class given is functional. In general terms: A counterscreen serves to expose hits that act by an unwanted route or on another target.

Test [2] concerns the target Wee1-like protein kinase (Homo sapiens, UniProt P30291). Nature of the test: Dose Response Cell-based Assay for Inhibitors of Wee1 Degradation. [Related pubchem assays: 1410, 1321 ]. The class given is functional.
Test [3] concerns the target T1, Estrogen receptor (Homo sapiens, UniProt P03372).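 Note: potency for inhibiting coactivator peptide recruitment to the receptor.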
T1 sequence (P03372 whole entry): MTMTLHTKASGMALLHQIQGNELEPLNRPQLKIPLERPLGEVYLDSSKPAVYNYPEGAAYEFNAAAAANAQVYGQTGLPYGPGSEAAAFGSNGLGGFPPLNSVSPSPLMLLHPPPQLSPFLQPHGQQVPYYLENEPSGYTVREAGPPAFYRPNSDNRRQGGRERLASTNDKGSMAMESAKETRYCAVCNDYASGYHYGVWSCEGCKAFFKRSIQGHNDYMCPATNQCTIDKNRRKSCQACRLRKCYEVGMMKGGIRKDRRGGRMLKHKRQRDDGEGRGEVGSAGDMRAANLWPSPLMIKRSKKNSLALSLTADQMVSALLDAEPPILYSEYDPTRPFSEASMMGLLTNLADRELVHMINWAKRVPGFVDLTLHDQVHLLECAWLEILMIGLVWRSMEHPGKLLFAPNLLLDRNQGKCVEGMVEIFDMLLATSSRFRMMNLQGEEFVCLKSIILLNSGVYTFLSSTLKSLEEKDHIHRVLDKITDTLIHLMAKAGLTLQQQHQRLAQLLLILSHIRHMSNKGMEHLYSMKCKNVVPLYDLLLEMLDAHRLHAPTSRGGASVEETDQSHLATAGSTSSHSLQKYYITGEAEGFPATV

Test [4] is described as follows: inhibitors of SNCA 5'UTR-driven reporter translation, confirmation, H4 neuroglioma cells, luminescence (AID 1988). It is filed as functional, cell-based.
Test [5] is described as follows: inhibitors of SNCA 5'UTR-driven translation, confirmation, luminescence, H4 neuroglioblastoma cells, dose confirmation (AID 2454).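 Note: H4 neuroglioblastoma cells carrying an alpha-synuclein 5'UTR luciferase reporter; potency for inhibition of the luciferase signal.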 It is filed as functional, cell-based.
Test [6] has as its system Streptococcus. Nature of the test: Group A Streptococcus viability loss, dose response, counter-screen for streptokinase expression inhibitor project, luminescence, BacTiterGlo (AID 1915).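 Note: potency for reduction of bacterial viability or growth.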 It is filed as functional, organism-based.
Test [7] is described as follows: cells. It is filed as functional, cell-based.
Test [8] concerns Streptococcus sp. 'group A'. Nature of the test: growth inhibition of control SK(-) GAS strain, dose response, counter-screen for streptokinase expression inhibitor project, luminescence, kanamycin, BacTiterGlo, confirmation (AID 1900). The class given is functional, organism-based.
Test [9] has as its target T2, Streptokinase A (Streptococcus pyogenes serotype M1, UniProt P10520).
T2 sequence (P10520 whole entry): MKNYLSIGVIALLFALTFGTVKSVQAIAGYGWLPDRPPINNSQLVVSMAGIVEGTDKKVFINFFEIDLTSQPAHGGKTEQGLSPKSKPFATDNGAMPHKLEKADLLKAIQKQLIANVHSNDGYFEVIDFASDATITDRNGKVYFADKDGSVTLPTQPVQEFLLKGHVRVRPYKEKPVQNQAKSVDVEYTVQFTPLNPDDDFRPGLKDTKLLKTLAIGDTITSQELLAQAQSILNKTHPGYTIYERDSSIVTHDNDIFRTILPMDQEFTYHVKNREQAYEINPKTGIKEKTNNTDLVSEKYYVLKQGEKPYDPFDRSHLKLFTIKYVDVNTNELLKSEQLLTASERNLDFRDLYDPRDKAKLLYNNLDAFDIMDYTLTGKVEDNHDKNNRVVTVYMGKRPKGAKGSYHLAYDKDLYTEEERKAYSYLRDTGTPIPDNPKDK
Nature of the test: S. pyogenes streptokinase expression inhibitors, potency, dose response, plasminogen activation absorbance, OD405 (AID 1914).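 Note: secreted streptokinase activity via plasminogen activation per viability signal from cell pellet.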 It is filed as functional, Streptococcus pyogenes M1 GAS.

Test [10] in a line: inhibitors of firefly luciferase expression or activity, dose response, H4 neuroglioma cells, luminescence (AID 1990). The class given is functional, cell-based.
Test [11] is described as follows: luciferase reporter signal reduction – luminescence, H4-C neuroglioblastoma cells, dose response (AID 2458).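 Note: H4 neuroglioblastoma cells stably carrying a luciferase reporter gene fusion.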 The class given is functional, cell-based. For orientation: In a reporter assay the amount or activity of a reporter protein is the signal.
For test [12], the target named is 5-hydroxytryptamine receptor 1E (Homo sapiens, UniProt P28566). Nature of the test: Counterscreen assay for S1P3 antagonists: Dose response cell-based high throughput screening assay to identify antagonists of the 5-Hydroxytryptamine Receptor Subtype 1E (5HT1E). [Related pubchem assays: 1429, 485 ]. It is filed as functional.
Test [13] has as its target Sphingosine 1-phosphate receptor 3 (Homo sapiens, UniProt Q99500). The experiment in a line: Dose response cell-based high throughput screening assay for antagonists of the Sphingosine 1-Phosphate Receptor 3 (S1P3). [Related pubchem assays: 1429, 485 ]. The class given is functional.
The target in test [14] is Mothers against decapentaplegic homolog 3 (Homo sapiens, UniProt P84022). Nature of the test: SMAD3 transcription factor inhibitors, dose response (AID 715). It is filed as functional.
Test [15] addresses Peroxisome proliferator-activated receptor gamma/Nuclear receptor coactivator 2 (Homo sapiens, UniProt P37231). It is filed as functional.
Test [16] concerns the target Peroxisome proliferator-activated receptor gamma/Nuclear receptor coactivator 1 (Homo sapiens, UniProt P37231). The class given is functional.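 Note: agonist potency as compounds enhance coactivator SRC-1 recruitment to PPARgamma.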
In test [17] the target is Peroxisome proliferator-activated receptor gamma/Nuclear receptor coactivator 3 (Homo sapiens, UniProt P37231). It is filed as functional.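 Note: agonist potency for raising coactivator recruitment to the receptor.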
The nature of test [18]: Luminescence-based counterscreen assay for KLF5 inhibitors: dose response cell-based high throughput screening assay to identify cytotoxic compounds using the IEC-6 intestinal epithelial cell line. [Related pubchem assays: 1700 (Primary screen.), 1834 (Confirmation screen.), 1858 (Summary AID.), 1905 (Counterscreen.)]. The class given is functional.
Test [19] concerns the target Sphingosine 1-phosphate receptor 2 (Homo sapiens, UniProt O95136). Nature of the test: Dose Response Cell Based Assay for Agonists of the S1P2 Receptor of Purchased Analogues. [Related pubchem assays: 729, 843, 854, 736 ]. The class given is functional.
Test [20] relates to Streptococcus. Nature of the test: Streptococcus pyogenes growth inhibition counter-screen, dose response, counter-screen for streptokinase expression inhibitor project, luminescence, BacTiter-Glo, strain UMAA2166 (AID 2477). It is filed as functional, organism-based.
Test [21] concerns the target T2, Streptokinase A. The experiment in a line: Absorbance Microorganism-Based Dose Response Follow up to Identify Inhibitors of Streptokinase Expression. [Related pubchem assays: 1677 (Project Summary), 1915, 1914, 1902 (Retest at Dose), 1900 (Counter Screen), 1662 (Primary HTS)]. It is filed as functional, Streptococcus pyogenes M1 GAS.

Calls of active or inactive are those of the source.

Chain of Mothers against decapentaplegic homolog 3 (P84022 whole entry): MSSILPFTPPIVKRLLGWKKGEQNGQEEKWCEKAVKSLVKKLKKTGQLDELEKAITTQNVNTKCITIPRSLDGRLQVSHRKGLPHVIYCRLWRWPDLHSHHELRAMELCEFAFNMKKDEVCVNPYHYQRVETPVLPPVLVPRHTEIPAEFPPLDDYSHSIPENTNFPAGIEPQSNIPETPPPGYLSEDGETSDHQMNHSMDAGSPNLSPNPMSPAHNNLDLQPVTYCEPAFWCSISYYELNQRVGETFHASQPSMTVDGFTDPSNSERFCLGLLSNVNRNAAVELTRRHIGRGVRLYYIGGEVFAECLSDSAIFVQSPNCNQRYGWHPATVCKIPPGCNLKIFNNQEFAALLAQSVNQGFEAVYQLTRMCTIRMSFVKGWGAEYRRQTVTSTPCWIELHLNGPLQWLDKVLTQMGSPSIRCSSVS
Chain of Sphingosine 1-phosphate receptor 3 (Q99500 whole entry): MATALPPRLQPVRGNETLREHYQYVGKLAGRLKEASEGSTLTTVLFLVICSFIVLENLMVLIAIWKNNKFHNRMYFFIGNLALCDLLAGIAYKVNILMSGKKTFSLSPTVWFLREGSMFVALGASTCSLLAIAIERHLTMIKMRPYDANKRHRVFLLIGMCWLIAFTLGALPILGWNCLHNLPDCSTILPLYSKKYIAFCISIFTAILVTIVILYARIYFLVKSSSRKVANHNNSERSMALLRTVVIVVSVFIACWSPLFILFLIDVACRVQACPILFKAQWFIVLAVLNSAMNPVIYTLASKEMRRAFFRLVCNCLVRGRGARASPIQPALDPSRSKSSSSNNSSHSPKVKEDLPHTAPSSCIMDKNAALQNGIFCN
Chain of G2/mitotic-specific cyclin-B1 (P14635 whole entry): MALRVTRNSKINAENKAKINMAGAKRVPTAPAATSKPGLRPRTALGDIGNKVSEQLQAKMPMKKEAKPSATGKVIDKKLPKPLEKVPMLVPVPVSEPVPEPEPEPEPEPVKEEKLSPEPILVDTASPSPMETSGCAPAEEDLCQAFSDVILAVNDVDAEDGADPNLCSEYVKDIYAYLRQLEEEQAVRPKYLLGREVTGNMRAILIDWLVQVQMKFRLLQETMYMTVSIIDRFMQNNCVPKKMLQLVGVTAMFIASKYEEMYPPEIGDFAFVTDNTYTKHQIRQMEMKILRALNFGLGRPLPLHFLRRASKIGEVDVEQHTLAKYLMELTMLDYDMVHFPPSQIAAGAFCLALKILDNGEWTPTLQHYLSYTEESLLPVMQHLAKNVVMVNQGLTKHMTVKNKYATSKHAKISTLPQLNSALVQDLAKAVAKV
Chain of Peroxisome proliferator-activated receptor gamma/Nuclear receptor coactivator 1 (P37231 whole entry): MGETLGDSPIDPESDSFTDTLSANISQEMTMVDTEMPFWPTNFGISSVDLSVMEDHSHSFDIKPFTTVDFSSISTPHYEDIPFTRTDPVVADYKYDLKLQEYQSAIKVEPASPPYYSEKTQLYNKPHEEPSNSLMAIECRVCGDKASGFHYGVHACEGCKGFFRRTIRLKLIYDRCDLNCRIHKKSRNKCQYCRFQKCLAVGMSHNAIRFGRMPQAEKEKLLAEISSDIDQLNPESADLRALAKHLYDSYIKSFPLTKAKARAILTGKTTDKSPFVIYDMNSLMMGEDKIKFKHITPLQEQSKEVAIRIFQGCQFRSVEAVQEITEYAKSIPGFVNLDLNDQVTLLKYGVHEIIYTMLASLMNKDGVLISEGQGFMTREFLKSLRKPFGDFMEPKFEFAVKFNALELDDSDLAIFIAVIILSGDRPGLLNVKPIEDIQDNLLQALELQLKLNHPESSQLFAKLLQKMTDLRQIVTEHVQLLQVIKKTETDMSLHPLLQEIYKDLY
Chain of Peroxisome proliferator-activated receptor gamma/Nuclear receptor coactivator 1 (Q15788 whole entry, further chain): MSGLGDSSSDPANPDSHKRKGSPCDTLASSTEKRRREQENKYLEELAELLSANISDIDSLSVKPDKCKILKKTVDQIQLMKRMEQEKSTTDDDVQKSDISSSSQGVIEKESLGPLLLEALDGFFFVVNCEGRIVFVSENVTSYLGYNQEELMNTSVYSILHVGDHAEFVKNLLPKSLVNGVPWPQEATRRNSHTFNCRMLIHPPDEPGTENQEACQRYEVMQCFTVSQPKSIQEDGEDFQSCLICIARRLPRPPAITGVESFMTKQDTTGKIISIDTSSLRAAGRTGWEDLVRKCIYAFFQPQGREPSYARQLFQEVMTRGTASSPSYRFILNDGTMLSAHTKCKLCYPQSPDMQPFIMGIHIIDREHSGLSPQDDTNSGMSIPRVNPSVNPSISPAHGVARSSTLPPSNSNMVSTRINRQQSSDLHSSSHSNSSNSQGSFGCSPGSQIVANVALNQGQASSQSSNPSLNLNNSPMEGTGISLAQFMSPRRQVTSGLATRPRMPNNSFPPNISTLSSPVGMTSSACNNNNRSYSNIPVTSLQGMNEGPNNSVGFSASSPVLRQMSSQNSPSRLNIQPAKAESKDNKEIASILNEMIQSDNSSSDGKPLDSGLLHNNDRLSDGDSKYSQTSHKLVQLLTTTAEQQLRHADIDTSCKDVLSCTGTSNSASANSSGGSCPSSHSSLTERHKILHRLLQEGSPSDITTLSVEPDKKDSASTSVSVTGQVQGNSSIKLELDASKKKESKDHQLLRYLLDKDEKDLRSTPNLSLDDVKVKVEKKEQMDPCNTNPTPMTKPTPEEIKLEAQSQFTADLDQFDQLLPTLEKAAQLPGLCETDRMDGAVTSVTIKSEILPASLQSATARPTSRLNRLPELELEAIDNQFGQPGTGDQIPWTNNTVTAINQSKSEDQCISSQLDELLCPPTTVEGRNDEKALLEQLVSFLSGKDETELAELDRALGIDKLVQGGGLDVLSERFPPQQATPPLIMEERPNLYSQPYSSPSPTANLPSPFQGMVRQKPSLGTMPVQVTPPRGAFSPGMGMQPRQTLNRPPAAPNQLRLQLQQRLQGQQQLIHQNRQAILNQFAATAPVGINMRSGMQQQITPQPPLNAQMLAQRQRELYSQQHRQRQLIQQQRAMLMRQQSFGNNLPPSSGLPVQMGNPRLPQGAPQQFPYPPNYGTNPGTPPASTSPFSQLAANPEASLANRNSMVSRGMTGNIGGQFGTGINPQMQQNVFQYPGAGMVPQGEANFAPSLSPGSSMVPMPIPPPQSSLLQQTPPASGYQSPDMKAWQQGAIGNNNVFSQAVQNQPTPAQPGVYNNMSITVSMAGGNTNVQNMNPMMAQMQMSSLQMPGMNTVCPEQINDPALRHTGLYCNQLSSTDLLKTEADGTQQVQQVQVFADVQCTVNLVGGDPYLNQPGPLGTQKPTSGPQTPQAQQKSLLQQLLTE
Chain of 5-hydroxytryptamine receptor 1E (P28566 whole entry): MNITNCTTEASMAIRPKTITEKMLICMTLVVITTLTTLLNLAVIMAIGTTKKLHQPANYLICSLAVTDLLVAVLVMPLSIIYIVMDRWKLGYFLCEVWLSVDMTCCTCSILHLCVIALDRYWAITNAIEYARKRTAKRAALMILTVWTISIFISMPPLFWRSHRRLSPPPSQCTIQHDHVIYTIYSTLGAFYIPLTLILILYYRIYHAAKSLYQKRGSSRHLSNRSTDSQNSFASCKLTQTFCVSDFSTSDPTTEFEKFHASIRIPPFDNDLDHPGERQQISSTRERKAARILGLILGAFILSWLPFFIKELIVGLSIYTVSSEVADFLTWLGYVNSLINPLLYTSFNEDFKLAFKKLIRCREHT
Chain of Sphingosine 1-phosphate receptor 2 (O95136 whole entry): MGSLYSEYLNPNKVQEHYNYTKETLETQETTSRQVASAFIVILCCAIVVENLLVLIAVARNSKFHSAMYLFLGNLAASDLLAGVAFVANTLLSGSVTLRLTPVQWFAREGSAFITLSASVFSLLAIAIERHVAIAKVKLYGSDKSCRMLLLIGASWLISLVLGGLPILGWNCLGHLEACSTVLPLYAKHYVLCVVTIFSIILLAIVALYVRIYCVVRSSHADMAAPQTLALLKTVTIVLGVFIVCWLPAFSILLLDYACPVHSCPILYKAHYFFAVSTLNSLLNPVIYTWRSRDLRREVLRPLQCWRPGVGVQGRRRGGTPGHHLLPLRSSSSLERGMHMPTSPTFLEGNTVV
Chain of Wee1-like protein kinase (P30291 whole entry): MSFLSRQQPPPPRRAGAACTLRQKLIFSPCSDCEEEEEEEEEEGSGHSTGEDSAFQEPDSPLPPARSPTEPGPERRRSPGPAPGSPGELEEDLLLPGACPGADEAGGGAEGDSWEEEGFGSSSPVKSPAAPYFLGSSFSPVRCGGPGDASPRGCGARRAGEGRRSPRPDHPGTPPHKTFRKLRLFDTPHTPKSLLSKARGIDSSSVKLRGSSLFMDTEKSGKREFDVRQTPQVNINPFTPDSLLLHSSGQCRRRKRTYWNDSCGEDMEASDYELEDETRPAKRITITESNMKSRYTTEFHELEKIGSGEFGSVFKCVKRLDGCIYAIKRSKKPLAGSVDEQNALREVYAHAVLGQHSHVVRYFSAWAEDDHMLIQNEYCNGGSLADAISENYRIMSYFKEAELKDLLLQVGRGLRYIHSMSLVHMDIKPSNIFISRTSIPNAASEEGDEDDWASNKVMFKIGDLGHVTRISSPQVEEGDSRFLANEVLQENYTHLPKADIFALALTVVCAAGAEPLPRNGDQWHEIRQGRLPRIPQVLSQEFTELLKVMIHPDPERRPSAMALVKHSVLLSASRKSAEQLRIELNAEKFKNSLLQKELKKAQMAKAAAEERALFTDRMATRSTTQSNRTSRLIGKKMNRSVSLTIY

One may read the EC50 as the concentration that produces a half-maximal response. Consider `CCN(CC)c1ccc(/C=N/NC(=O)c2ccco2)cc1`, for which the EC50 in test [1] and in [2] was > 49.7 µM (not active) throughout.
A word on the IC50: it is the concentration at which inhibition is half-maximal. On to `CN1Cc2cc(C(=O)c3cc(Cl)cc(CSc4ncccn4)c3O)cnc2NC1=O`, for which the half-inhibitory concentration (IC50) in [3] was > 50 µM (not active). For the same compound, the EC50 is < 0.1 µM (active) in test [4]; 0.799 µM (active) in [5]; > 150 µM (not active) in test [6]; 0.812 µM (active) in test [7]; 13.8 µM (active) in [8]; > 150 µM (not active) in [9]. Also, the EC50 in test [10] is < 0.1 µM (active); in test [11], 0.449 µM (active).
As for `O=C(CSc1nnc(-c2cccnc2)n1Cc1ccco1)N1c2ccccc2Sc2ccccc21`, the half-inhibitory concentration (IC50) in test [12] and in [13] was > 50 µM (not active) in each case.
In the case of `CCCCOC(=O)CSc1nc(N)c(C#N)c(-c2ccc(OCC)cc2)c1C#N`, the half-maximal inhibitory concentration (IC50) in test [14] is 11 µM (active). Besides, the figures for the EC50 in test [15], in [16] and in test [17] were 9.42 µM (active), 11.2 µM (not active) and > 79.4 µM (not active), respectively.
For `CCOC(=O)c1sc(NC(=O)c2sc(C)nc2C)nc1C`, the IC50 in test [18] is > 39.8 µM (not active).
On to `Cc1cc(C(=O)CSc2nnnn2C2CC2)c(C)n1Cc1ccccc1`, for which the EC50 in test [19] is > 30 µM (not active).
`COc1ccc(Sc2ccc(NC(=O)c3cccc(Cl)c3)cc2C#N)cc1`: the concentration for a half-maximal effect (EC50) in test [20] was > 500 µM (not active); in test [21], 8.99 µM (active).
